From patent US10543159B2, “Hair papilla cell activator” (Ezaki Glico Co., Ltd., priority 2014, dated 2020)
Structures can show the parent of a compound that is named as a salt.

Legend:
FGF7 and VEGF = test: Gene expression with POs-Ca (R) combined with general hair-restoration components (Example 8); format: cell-based, human; settings: 0.25% POs-Ca (R) with 0.25% glycyrrhizinate dipotassium, 1% tocopherol acetate, 0.125% pantothenyl ethyl ether or 1% Swertia japonica; two wells
Method: (1) Glycyrrhizinate dipotassium (for biochemical use) from Wako Pure Chemical Industries, Ltd. was diluted to 20% (w/v) with water, and sterilized by being passed through a 0.20-μm filter (Minisart, surfactant-free cellulose acetate, Sartorius Stedim Biotech, US) with a 10-ml syringe (Terumo Corporation), and the resulting product was diluted with sterilized water, as required, and used.
(2) (±)-α-Tocopherol acetate (first grade) from Wako Pure Chemical Industries, Ltd., as tocopherol acetate, and DL-pantothenyl ethyl ether from Santa Cruz Biotechnology, as pantothenyl ethyl ether, were each diluted 5-fold to 20% (v/v) with ethanol, and diluted with sterilized water, as required, and used.
(3) A water-ethanol solution of Swertia japonica extract from Senken Co., Ltd., as a 100% (v/v) extract, was diluted with sterilized water, as required, and used.
(1) 500 μl of a special medium in which 2×10^4 cells/ml of follicle dermal papilla cells were suspended was dispensed into a type I collagen-coated 24-well cell culture plate (Corning), and cultured at a cell density of 5×10^3 cells/cm^2 at 37° C. for 96 hours, until the cells reached subconfluent. […]
(3) Two wells were used for culturing each of the DMEM solutions containing (a) to (i). The expression levels of FGF7 and VEGF were analyzed as in (3) to (8) of Example 3, and the average values of the two wells were compared.

Wnt5a = test: Quantitative PCR gene expression in follicle dermal papilla cells: Wnt5a; format: cell-based, human; settings: 37° C., 5 hours
Method: (§1) (1) 500 μl of a special medium in which 4×10^4 cells/ml of follicle dermal papilla cells were suspended was dispensed into a type I collagen-coated 24-well cell culture plate (Corning), and cultured at a cell density of 1.0×10^4 cells/cm^2 at 37° C. for 42 hours. […] Each of the solutions (a) to (c) was mixed with DMEM high glucose (Sigma, USA) at a ratio of 1:9.
(§2) (3) The medium was aspirated from each well obtained in (1), the well was washed by adding 1 ml of 1×PBS (137 mM NaCl, 8.1 mM Na2HPO4, 2.68 mM KCl, 1.47 mM KH2PO4 (pH 7.4); Wako Pure Chemical Industries, Ltd.), and aspirating the PBS, 500 μl of DMEM high glucose was added, and the cells were incubated in a CO2 incubator at 37° C. for 5 hours. […]
(4) The medium was removed from each well, and then mRNA was extracted using CellAmp Direct RNA Prep Kit for RT-PCR (Takara). The method was performed in accordance with the manual for the kit.
(5) 8 μl of the extracted mRNA solution (200 μl for each well) was used, and cDNA was obtained by the reverse transcription reaction at a scale of 40 μl, using PrimeScript RT Master Mix (Takara). The reaction conditions were as set forth in the manual for the kit.
(6) 0.5 μl of each of cDNA solutions diluted 2-fold with water, 1 μl of a solution containing 4 μM of each of primers 1 and 2 for each of the genes shown in Table 2, 5 μl of SYBR Premix Ex Taq II (Takara), and 3.5 μl of water were added, and quantitative PCR was performed on each of the genes. Using CFX96 Touch (BIO-RAD, USA), denaturation treatment at 95° C. for 30 seconds was performed, and then a two-step cycle at 95° C. for 5 seconds and at 62° C. for 20 seconds was performed for 65 cycles. Fluorescence intensity after each cycle was measured.
(§3) (7) Using PGK1 and GAPDH as reference genes, a comparative analysis of expression levels was performed with the analysis software (Bio-Rad CFX Manager 3.0) included in CFX96Touch. Relative expression levels were calculated under the default conditions of the software. […]

FGF-7 [1] = test: Quantitative PCR gene expression in follicle dermal papilla cells: FGF-7; format: cell-based, human; settings: 37° C., 5 hours
Method: as §1, §2
(6) 0.5 μl of each of cDNA solutions diluted 2-fold with water, 1 μl of a solution containing 4 μM of each of primers 1 and 2 for each of the genes shown in Table 2, 5 μl of SYBR Premix Ex Taq II (Takara), and 3.5 μl of water were added, and quantitative PCR was performed on each of the genes. […] Fluorescence intensity after each cycle was measured.
as §3

VEGF [2] = test: Quantitative PCR gene expression in follicle dermal papilla cells: VEGF; format: cell-based, human; settings: Example 5: 0.25% POs-Ca (R), 50 μM adenosine or both; DMEM serum-free, 37° C., 5 hours; Dunnett p<0.05, n=8
[3] = test system: human follicle dermal papilla cells; test: Follicle dermal papilla cell proliferation, Cell Counting Kit-F cell count (Example 2); format: cell-based
Method: A strain (Lot. 3092504.12) sold by PromoCell (Germany) was used as human follicle dermal papilla cells. The cells were cultured in a CO2 incubator at 37° C., using a special medium for follicle dermal papilla cells (PromoCell), unless otherwise indicated. Cell subculturing was performed as follows: cells were seeded at 5000 to 10000 cells/cm^2 in an uncoated dish, and when the cells reached subconfluent, they were treated with trypsin-EDTA (0.03%) and detached, and then re-seeded. […] The medium was replaced about once every 3 days.
1. The procedures (1) and (3) to (5) in Example 1 were performed in the same manner as described above. Solutions of the compositions shown in the following table were prepared in a concentration series starting from a 10% (w/v) aqueous solution of POs-Ca (R), a 12.9% (w/v) aqueous solution of G1P-Ca, a 1.84% (w/v) aqueous solution of CaCl2.2H2O, or a 10% (w/v) aqueous solution of POs-Na.
2. In place of the conditions ((6), (7) and (8)) in Example 1, Cell Counting Kit-F (Dojindo Molecular Technologies, Inc.) was added to each well in accordance with the manual, and the number of cells was counted.

VEGF [4] = test: Expression rate of VEGF among acidic saccharide salts, quantitative PCR (Example 6); format: cell-based, human; settings: Example 6: solutions (b)-(h) of b288 mixed 1:9 with DMEM, GAPDH reference, mean of 4 PCR assays
Method: (§4) (1) 500 μl of a special medium in which 2×10^4 cells/ml of follicle dermal papilla cells were suspended was dispensed into a type I collagen-coated 24-well cell culture plate (Corning), and cultured at a cell density of 5×10^3 cells/cm^2 at 37° C. for 72 hours. […] Oji Cornstarch Co., Ltd.), (f) a 2.5% (w/v) aqueous solution of a phosphorylated oligosaccharide magnesium salt (POs-Mg; […] (3) Each of the solutions (a) to (c) was mixed with DMEM high glucose (Sigma, USA) at a ratio of 1:9. (4) Following the procedures (4) to (6) in Example 2, mRNA was extracted from the cells, cDNA was prepared, and then the expression levels of the VEGF, FGF-7, and GAPDH genes were quantified by quantitative PCR. (7) Using GAPDH as a reference gene, a comparative analysis of expression levels was performed with the analysis software (Bio-Rad CFX Manager 3.0) included in CFX96Touch. The expression levels were calculated under the default conditions of the software.

FGF-7 [5] = test: Expression rate of FGF-7 among acidic saccharide salts, quantitative PCR (Example 6); format: cell-based, human; settings: Example 6: solutions (b)-(h) of b288 mixed 1:9 with DMEM, GAPDH reference, mean of 4 PCR assays
Method: as §4

[6] = Example 7: 0.25% POs-Mg or MgCl2.6H2O with equivalent magnesium, DMEM, Dunnett p<0.05
[7] = Example 5: 0.25% POs-Ca (R), 50 μM adenosine or both, DMEM serum-free, Dunnett p<0.05, n=8

## CC(=O)Oc1c(C)c(C)c2c(c1C)CCC(C)(CCC[C@H](C)CCC[C@H](C)CCCC(C)C)O2 (mixture of isomers) [tocopherol acetate, (±)-α-Tocopherol acetate]
FGF7 and VEGF
  synergistic effect with POs-Ca (R) on expression of FGF7 and VEGF: None

## magnesium chloride hexahydrate [general magnesium]
Wnt5a; [6]
  expression of WNTSA: not observed
FGF-7 [1]; [6]
  expression of FGF7: not observed

## Nc1ncnc2c1ncn2[C@@H]1O[C@H](CO)[C@@H](O)[C@H]1O [adenosine]
Wnt5a; [7]
  expression of WNTSA (Wnt5a) compared to without treatment: significant difference
VEGF [2]
  expression of VEGF compared to without treatment: significant difference
FGF-7 [1]; [7]
  expression of FGF7 compared to without treatment: significant difference

## O=P(O)(O)OC1O[C@H](CO)[C@@H](O)[C@H](O)[C@H]1O (some centres unmarked) [G1P-Ca, glucose-1-phosphate calcium salt]
[3]; FIG. 1B-1D legends, Dunnett p<0.05
  working concentrations having the effect of proliferating follicle dermal papilla cells: over 0.3%
[3]; concentration series of Table 1A, 3 days
  number of cells compared to that without addition: increased at all concentrations
VEGF [4]; calcium salt
  VEGF, relative values of the expression levels based on the control as 1: induced an increase
VEGF [4]; listed as G1P—Ca, calcium salt
  VEGF, relative values of the expression levels based on the control as 1: 1.46
FGF-7 [5]; calcium salt
  FGF7, relative values of the expression levels based on the control as 1: induced an increase
FGF-7 [5]; listed as G1P—Ca, calcium salt
  FGF7, relative values of the expression levels based on the control as 1: 1.10

## CC1(C)[C@@H](O[C@H]2O[C@H](C(=O)O)[C@@H](O)[C@H](O)[C@H]2O[C@@H]2O[C@H](C(=O)O)[C@@H](O)[C@H](O)[C@H]2O)CC[C@]2(C)[C@H]3C(=O)C=C4[C@@H]5C[C@@](C)(C(=O)O)CC[C@]5(C)CC[C@@]4(C)[C@]3(C)CC[C@@H]12 [glycyrrhizinate dipotassium, Glycyrrhizinate dipotassium]
FGF7 and VEGF
  synergistic effect with POs-Ca (R) on expression of FGF7 and VEGF: None

## O=C([O-])[C@H](O)[C@@H](O)[C@H](O[C@@H]1O[C@H](CO)[C@H](O)[C@H](O)[C@H]1O)[C@H](O)CO.O=C([O-])[C@H](O)[C@@H](O)[C@H](O[C@@H]1O[C@H](CO)[C@H](O)[C@H](O)[C@H]1O)[C@H](O)CO.[Ca+2] [Lactobio-Ca, calcium lactobionate]
VEGF [4]
  VEGF, relative values of the expression levels based on the control as 1: 1.48
VEGF [4]; listed as calcium lactobionate
  VEGF, relative values of the expression levels based on the control as 1: induced an increase
FGF-7 [5]
  FGF7, relative values of the expression levels based on the control as 1: 1.35
FGF-7 [5]; listed as calcium lactobionate
  FGF7, relative values of the expression levels based on the control as 1: induced an increase
